{"source": "paper PMC8110684", "about": "“Effects of Bacillus subtilis iturin A on HepG2 cells in vitro and vivo” (AMB Express, 2021)", "key": {"[1]": {"tested_on": "HepG2 cells", "assay": "Capability to enter cells (CFNSE label, fluorescence microscopy)", "conditions": "dissolved in cell culture medium, incubated with HepG2 for 10 min, fluorescence microscope", "quoted_text": "(§1) The purified CFNSE-iturin A was dissolved in cell culture medium and incubated with HepG2 cells for 10 min, and then observed under a fluorescence microscope and photographed. The control group was cells incubated with CFNSE for the same time."}, "[2]": {"assay": "Effect of treatment on mice health (weight, serum biochemistry, necropsy, histopathology)", "type": "in vivo, BALB/c nude mice", "conditions": "3 mg/kg per day", "experimental": "During the 15-day trial, the weight and food intake of mice were recorded daily.\nAt euthanasia, blood was collected after the animals had been fasted overnight. Blood samples were collected from both control and test groups via cardiac puncture under ketamine anesthesia. All blood samples were then subjected to clinical analysis of aspartate aminotransferase (AST), alanine aminotransferase (ALT), and creatinine (SCr).\nMice were examined for gross lesions. Tissues and organs of interest were retained. The liver, kidneys, and spleen of all mice were weighed soon after dissection and then preserved in 4% paraformaldehyde for histopathological examination (Turki et al. [2010]). Histopathological assessments were performed to evaluate viscera retained from both control and treated animals. Viscera of interest were trimmed, processed, embedded in paraffin, sectioned, and stained with H&E before their microscopic examination."}, "[3]": {"tested_on": "HepG2 cells", "quoted_text": "as §1"}}, "note": "Where two headings read alike, the source gives them in different places. Where a SMILES comes first, the peptide text is derived from it.", "data": [{"compound": "5(6)-Carboxy fluorescein N-succinimidyl ester [CFNSE]", "values": [{"measurement": "entry into HepG2 cells (cell fluorescence)", "setting": "[1]", "result": "could not enter the cells"}]}, {"compound": "CCCCCCCCCCCC1CC(=O)N[C@@H](CC(N)=O)C(=O)N[C@H](Cc2ccc(O)cc2)C(=O)N[C@H](CC(N)=O)C(=O)N[C@@H](CCC(N)=O)C(=O)N2CCC[C@H]2C(=O)N[C@H](CC(N)=O)C(=O)N[C@@H](CO)C(=O)N1", "note": "(stereo partly shown) [iturin A] (HELM PEPTIDE1{N.[dY].[dN].Q.P.[dN].S.[CCCCCCCCCCCC(CC(=O)[*:2])N[*:1]]}$PEPTIDE1,PEPTIDE1,1:R1-8:R2$$$V2.0)", "values": [{"measurement": "kidney histopathology (H&E)", "setting": "[2]; 15 days", "result": "no necrotic cells or cell swelling was found"}, {"measurement": "liver histopathology (H&E)", "setting": "[2]; 15 days", "result": "no hepatocyte swelling, necrosis, inflammatory cell infiltration, or other phenomena were observed"}, {"measurement": "spleen histopathology (H&E)", "setting": "[2]; 15 days", "result": "orderly arrangement of cells without necrosis"}, {"measurement": "body weight versus control group", "setting": "[2]; 15 days, n = 6", "result": "no significant difference"}, {"measurement": "weight and viscera indexes of liver, spleen and kidney versus control", "setting": "[2]; 15 days, n = 6", "result": "No significant differences"}, {"measurement": "serum ALT versus control", "setting": "[2]; end of administration, n = 6", "result": "increased significantly"}, {"measurement": "serum AST versus control", "setting": "[2]; end of administration, n = 6", "result": "increased significantly"}, {"measurement": "serum creatinine (SCr) versus control", "setting": "[2]; end of administration, n = 6", "result": "no significant difference"}, {"measurement": "entry into HepG2 cells (cell fluorescence)", "setting": "[3]", "result": "could enter HepG2 cells within very short time"}]}]}
